Here are results for one compound from patent US20190014806A1, “Composition to Reduce the Negative Effects of Alcohol Consumption” (priority 2017, published 2019).

This experiment concerns drosophila. The experiment is described as follows: alcohol sedation model: recovery of drosophila after acute alcohol exposure. The class given is in vivo. The settings on record: FIG. 1; acute alcohol exposure over time; agents in fly food at least two days before exposure. The protocol:
This invention used a modified version of the alcohol sedation model disclosed by Sandhu et al to evaluate the effects of acute alcohol exposure in drosophila. For example, in one of the models, for at least two days prior to alcohol exposure, drosophila consumed standard fly food combined with placebo or investigational agents. The drosophila were then moved to empty, foam stopper-covered vials and allowed to acclimate before the foam stoppers were injected with 1 ml 100% ethanol. At different time intervals, it was noted how many drosophila in each vial lost consciousness. […] The average recovery score was calculated by averaging the recovery scores of individual drosophila. Increasing the extent of alcohol exposure led to greater alcohol toxicity, including substantial death. In the following examples, a modified version of the alcohol sedation model employed by Sandhu et al. (“An Inexpensive, Scalable Behavioral Assay for Measuring Ethanol Sedation Sensitivity and Rapid Tolerance in Drosophila,” J Vis Exp. Author manuscript; available in PMC 2016 Apr. 15) to evaluate the effects of acute alcohol exposure was used. For at least two days prior to alcohol exposure, flies consumed standard fly food combined with placebo or investigational agents. […] The average recovery score is calculated by averaging the recovery scores of individual flies. […]

As for `NCCS(=O)(=O)O` [taurine], the “recovery from consumption of alcohol in comparison with no taurine added (placebo)” value is “accelerates recovery from consumption of alcohol”.
